# From paper PMC8160793, “Potent Antimicrobial and Antibiofilm Activities of Feleucin-K3 Analogs Modified by α-(4-Pentenyl)-Ala against Multidrug-Resistant Bacteria” (Biomolecules, 2021)
# Square brackets hold non-standard residues; d marks the D form. Peptide text beside a SMILES is read from it. ξ: configuration not given here. ξαMeGly(pent-4-enyl) = C=CCCCC(C)(N)C(=O)O
# Assays:
# [1] = test system: MRSA; design: method as in PMID 32590058; details: cited from earlier work
# [2] = test system: S. aureus; test: Resistance development assay, sequential passaging; type: cell-based, Staphylococcus aureus; details: serial passage at sub-MIC
# Protocol: Serial passage and MIC determination were used to explore whether the bacteria developed drug resistance. On the first day, the MICs of the peptides were determined as described above. The next day, the bacterial suspension of sub-MIC concentration was cultivated to the mid-log phase. The MICs of the peptides were detected again, and this process was repeated for 20 days. The MICs of the antibiotics, including amoxicillin (AML), ceftazidime (CAZ) and imipenem, were also determined as controls.
# [3] = test system: A. baumannii 9236; type: cell-based, Acinetobacter baumannii; details: 9236, 18 h
# Protocol: (§1) The minimum inhibitory concentration (MIC) of the Feleucin-K3 analogs was tested by the broth microdilution method. Sensitive bacteria and drug-resistant bacteria were diluted to 1 × 10^6 CFU/mL, according to the McFarland standards. Bacterial suspension and peptide solutions (8–128 μg/mL) were incubated at 37 °C for 18 h. The minimum concentration without obvious bacterial growth was the MIC of the peptides. The stability of the analogs in a physiological salt environment was also investigated. In brief, salt powder (450-mM NaCl) was dissolved in deionized water, and the following investigational steps were the same as those described before. The above steps were repeated several times, until the same value was obtained three times.
# [4] = test system: A. baumannii 5444; type: cell-based, Acinetobacter baumannii; details: 5444, 18 h
# Protocol: as §1
# [5] = test system: A. baumannii 98110; type: cell-based, Acinetobacter baumannii; details: 98110, 18 h
# Protocol: as §1
# [6] = test system: A. baumannii 9896; type: cell-based, Acinetobacter baumannii; details: 9896, 18 h
# Protocol: as §1
# [7] = test system: A. baumannii 51243; type: cell-based, Acinetobacter baumannii; details: 51243, 18 h
# Protocol: as §1
# [8] = test system: A. baumannii 9336; type: cell-based, Acinetobacter baumannii; details: 9336, 18 h
# Protocol: as §1
# [9] = test system: A. baumannii 97830; type: cell-based, Acinetobacter baumannii; details: 97830, 18 h
# Protocol: as §1
# [10] = test system: A. baumannii 91810; type: cell-based, Acinetobacter baumannii; details: 91810, 18 h
# Protocol: as §1
# [11] = test system: A. baumannii 8309; type: cell-based, Acinetobacter baumannii; details: 8309, 18 h
# Protocol: as §1
# [12] = test system: A. baumannii 92359; type: cell-based, Acinetobacter baumannii; details: 92359, 18 h
# Protocol: as §1
# [13] = test system: A. baumannii 91944; type: cell-based, Acinetobacter baumannii; details: 91944, 18 h
# Protocol: as §1
# [14] = test system: A. baumannii 91152; type: cell-based, Acinetobacter baumannii; details: 91152, 18 h
# Protocol: as §1
# [15] = test system: A. baumannii 91105; type: cell-based, Acinetobacter baumannii; details: 91105, 18 h
# Protocol: as §1
# [16] = test system: A. baumannii 9828; type: cell-based, Acinetobacter baumannii; details: 9828, 18 h
# Protocol: as §1
# [17] = test system: A. baumannii 822144; type: cell-based, Acinetobacter baumannii; details: 822144, 18 h
# Protocol: as §1
# [18] = test system: A. baumannii ATCC 19606; type: cell-based, Acinetobacter baumannii; details: ATCC 19606, 18 h
# Protocol: as §1
# [19] = test system: A. baumannii 9840; type: cell-based, Acinetobacter baumannii; details: 9840, 18 h
# Protocol: as §1
# [20] = test system: A. baumannii 9331; type: cell-based, Acinetobacter baumannii; details: 9331, 18 h
# Protocol: as §1
# [21] = test system: A. baumannii 91199; type: cell-based, Acinetobacter baumannii; details: 91199, 18 h
# Protocol: as §1
# [22] = test system: A. baumannii 91869; type: cell-based, Acinetobacter baumannii; details: 91869, 18 h
# Protocol: as §1
# [23] = test system: A. baumannii 9234; type: cell-based, Acinetobacter baumannii; details: 9234, 18 h
# Protocol: as §1
# [24] = test system: E. coli ATCC 25922; type: cell-based; details: ATCC 25922, 18 h
# Protocol: as §1
# [25] = test system: P. aeruginosa ATCC 27853; type: cell-based, Pseudomonas aeruginosa; details: ATCC 27853, 18 h
# Protocol: as §1
# [26] = test system: S. aureus 794; type: cell-based, Staphylococcus aureus; details: 794, 18 h
# Protocol: as §1
# [27] = test system: MRSA 54; type: cell-based, Staphylococcus aureus; details: 54, 18 h
# Protocol: as §1
# [28] = test system: S. aureus ATCC 25923; type: cell-based, Staphylococcus aureus; details: ATCC 25923, 18 h
# Protocol: as §1
# [29] = test system: MRSA 936; type: cell-based, Staphylococcus aureus; details: 936, 18 h
# Protocol: as §1
# [30] = test system: MRSA 71; type: cell-based, Staphylococcus aureus; details: 71, 18 h
# Protocol: as §1
# [31] = test system: MRSA 48; type: cell-based, Staphylococcus aureus; details: 48, 18 h
# Protocol: as §1
# [32] = test system: S. aureus 725; type: cell-based, Staphylococcus aureus; details: 725, 18 h
# Protocol: as §1
# [33] = test system: MRSA 113; type: cell-based, Staphylococcus aureus; details: 113, 18 h
# Protocol: as §1
# [34] = test system: MRSA 75; type: cell-based, Staphylococcus aureus; details: 75, 18 h
# Protocol: as §1
# [35] = test system: MRSA 52; type: cell-based, Staphylococcus aureus; details: 52, 18 h
# Protocol: as §1
# [36] = test system: MRSA 51; type: cell-based, Staphylococcus aureus; details: 51, 18 h
# Protocol: as §1
# [37] = test system: MRSA 23; type: cell-based, Staphylococcus aureus; details: 23, 18 h
# Protocol: as §1
# [38] = test system: MRSA 74; type: cell-based, Staphylococcus aureus; details: 74, 18 h
# Protocol: as §1
# [39] = test system: MRSA ATCC 33591; type: cell-based, Staphylococcus aureus; details: ATCC 33591, 18 h
# Protocol: as §1
smiles,measurement,setting,value
"CC1(C)S[C@@H]2[C@H](NC(=O)[C@H](N)c3ccc(O)cc3)C(=O)N2[C@H]1C(=O)O [AML, amoxicillin]",MIC against MRSA,[1],up to 128 µg/mL
same,"maximum fold increase of MIC, S. aureus",[2]; 20 passages,≤ 1024 fold
same,passage at which resistant mutants were produced,[2]; strain taken as S. aureus,5 passage
C=CCCCC(C)(NC(=O)[C@H](CC(C)C)NC(=O)[C@H](CCCCN)NC(=O)[C@H](CC(C)C)NC(=O)[C@@H](N)Cc1ccccc1)C(=O)N[C@@H](CCCCN)C(=O)N[C@@H](CCCCN)C(=O)N[C@@H](CC(C)C)C(=O)N[C@@H](CC(C)C)C(N)=O (some centres unmarked) [Feleucin-K68] (H-FLKL[ξαMeGly(pent-4-enyl)]KKLL-NH2),"MIC, A. baumannii 9236",[3],4 µg/mL
same,"MIC, A. baumannii 5444",[4],4 µg/mL
same,"MIC, A. baumannii 98110",[5],4 µg/mL
same,"MIC, A. baumannii 9896",[6],4 µg/mL
same,"MIC, A. baumannii 51243",[7],4 µg/mL
same,"MIC, A. baumannii 9336",[8],4 µg/mL
same,"MIC, A. baumannii 97830",[9],4 µg/mL
same,"MIC, A. baumannii 91810",[10],4 µg/mL
same,"MIC, A. baumannii 8309",[11],4 µg/mL
same,"MIC, A. baumannii 92359",[12],4 µg/mL
same,"MIC, A. baumannii 91944",[13],4 µg/mL
same,"MIC, A. baumannii 91152",[14],4 µg/mL
same,"MIC, A. baumannii 91105",[15],4 µg/mL
same,"MIC, A. baumannii 9828",[16],4 µg/mL
same,"MIC, A. baumannii 822144",[17],4 µg/mL
same,"MIC, A. baumannii ATCC 19606",[18],4 µg/mL
same,"MIC, A. baumannii 9840",[19],4 µg/mL
same,"MIC, A. baumannii 9331",[20],8 µg/mL
same,"MIC, A. baumannii 91199",[21],4 µg/mL
same,"MIC, A. baumannii 91869",[22],4 µg/mL
same,"MIC, A. baumannii 9234",[23],4 µg/mL
same,"MIC, E. coli ATCC 25922",[24],8 µg/mL
same,"MIC, P. aeruginosa ATCC 27853",[25],8 µg/mL
same,"MIC, S. aureus 794",[26],8 µg/mL
same,"MIC, MRSA 54",[27],4 µg/mL
same,"MIC, S. aureus ATCC 25923",[28],4 µg/mL
same,"MIC, MRSA 936",[29],4 µg/mL
same,"MIC, MRSA 71",[30],8 µg/mL
same,"MIC, MRSA 48",[31],4 µg/mL
same,"MIC, S. aureus 725",[32],4 µg/mL
same,"MIC, MRSA 113",[33],4 µg/mL
same,"MIC, MRSA 75",[34],4 µg/mL
same,"MIC, MRSA 52",[35],8 µg/mL
same,"MIC, MRSA 51",[36],4 µg/mL
same,"MIC, MRSA 23",[37],4 µg/mL
same,"MIC, MRSA 74",[38],4 µg/mL
same,"MIC, MRSA ATCC 33591",[39],4 µg/mL
C=CCCCC(C)(NC(=O)[C@H](CCCCN)NC(=O)[C@H](CCCCN)NC(=O)[C@H](CC(C)C)NC(=O)[C@H](CC(C)C)NC(=O)[C@H](CCCCN)NC(=O)[C@H](CC(C)C)NC(=O)[C@@H](N)Cc1ccccc1)C(=O)N[C@@H](CC(C)C)C(N)=O (stereo partly drawn) [Feleucin-K69] (H-FLKLLKK[ξαMeGly(pent-4-enyl)]L-NH2),"MIC, A. baumannii 9236",[3],8 µg/mL
same,"MIC, A. baumannii 5444",[4],8 µg/mL
same,"MIC, A. baumannii 98110",[5],8 µg/mL
same,"MIC, A. baumannii 9896",[6],8 µg/mL
same,"MIC, A. baumannii 51243",[7],8 µg/mL
same,"MIC, A. baumannii 9336",[8],8 µg/mL
same,"MIC, A. baumannii 97830",[9],8 µg/mL
same,"MIC, A. baumannii 91810",[10],8 µg/mL
same,"MIC, A. baumannii 8309",[11],8 µg/mL
same,"MIC, A. baumannii 92359",[12],4 µg/mL
same,"MIC, A. baumannii 91944",[13],8 µg/mL
same,"MIC, A. baumannii 91152",[14],8 µg/mL
same,"MIC, A. baumannii 91105",[15],8 µg/mL
same,"MIC, A. baumannii 9828",[16],8 µg/mL
same,"MIC, A. baumannii 822144",[17],8 µg/mL
same,"MIC, A. baumannii ATCC 19606",[18],8 µg/mL
same,"MIC, A. baumannii 9840",[19],8 µg/mL
same,"MIC, A. baumannii 9331",[20],8 µg/mL
same,"MIC, A. baumannii 91199",[21],8 µg/mL
same,"MIC, A. baumannii 91869",[22],8 µg/mL
same,"MIC, A. baumannii 9234",[23],8 µg/mL
same,"MIC, E. coli ATCC 25922",[24],8 µg/mL
same,"MIC, P. aeruginosa ATCC 27853",[25],8 µg/mL
same,"MIC, S. aureus 794",[26],8 µg/mL
same,"MIC, MRSA 54",[27],4 µg/mL
same,"MIC, S. aureus ATCC 25923",[28],4 µg/mL
same,"MIC, MRSA 936",[29],4 µg/mL
same,"MIC, MRSA 71",[30],4 µg/mL
same,"MIC, MRSA 48",[31],4 µg/mL
same,"MIC, S. aureus 725",[32],4 µg/mL
same,"MIC, MRSA 113",[33],4 µg/mL
same,"MIC, MRSA 75",[34],4 µg/mL
same,"MIC, MRSA 52",[35],4 µg/mL
same,"MIC, MRSA 51",[36],4 µg/mL
same,"MIC, MRSA 23",[37],4 µg/mL
same,"MIC, MRSA 74",[38],8 µg/mL
same,"MIC, MRSA ATCC 33591",[39],4 µg/mL
